Drawing on PubChem BioAssay AID1259407 (Chemical Carcinogenesis Research Information System (CCRIS), 2018), this text covers mutagenic call for four compounds.

Structures are written as SMILES. The source made the active and inactive calls. The rule behind the calls is not given here.

The subject of this data set is CCRIS mutagenicity, Ames/micronucleus/aberration tests. Put plainly: CCRIS mutagenicity studies.
[1] abbreviates: Test System: AMES SALMONELLA TYPHIMURIUM, Strain/Indicator: TA98, Metabolic Activation: NONE, Method: STANDARD PLATE.
Setting [2] is: Test System: AMES SALMONELLA TYPHIMURIUM, Strain/Indicator: TA100, Metabolic Activation: NONE, Method: PREINCUBATION
Where [3] appears, read: Test System: AMES SALMONELLA TYPHIMURIUM, Strain/Indicator: TA100, Metabolic Activation: NONE, Method: STANDARD PLATE.
[4] abbreviates: Test System: AMES SALMONELLA TYPHIMURIUM, Strain/Indicator: TA100, Metabolic Activation: RAT, LIVER, S-9, AROCLOR 1254, Method: STANDARD PLATE.
[5] abbreviates: Test System: AMES SALMONELLA TYPHIMURIUM, Strain/Indicator: TA1535, Metabolic Activation: NONE, Method: STANDARD PLATE.
[6] abbreviates: Test System: AMES SALMONELLA TYPHIMURIUM, Strain/Indicator: TA1537, Metabolic Activation: NONE, Method: STANDARD PLATE.

In the case of `c1cnccn1`, the mutagenic call by setting is: (Test System: AMES SALMONELLA TYPHIMURIUM, Strain/Indicator: TA98, Metabolic Activation: HAMSTER, LIVER, S-9, AROCLOR 1254, Method: STANDARD PLATE) “inactive; negative”; (Test System: AMES SALMONELLA TYPHIMURIUM, Strain/Indicator: TA98, Metabolic Activation: NONE, Method: PREINCUBATION) “inactive; negative”; under setting [1], “inactive; negative”; (Test System: AMES SALMONELLA TYPHIMURIUM, Strain/Indicator: TA98, Metabolic Activation: RAT, LIVER, S-9, AROCLOR 1254, Method: PREINCUBATION) “inactive; negative”; (Test System: AMES SALMONELLA TYPHIMURIUM, Strain/Indicator: TA98, Metabolic Activation: RAT, LIVER, S-9, AROCLOR 1254, Method: STANDARD PLATE) “inactive; negative”; (Test System: AMES SALMONELLA TYPHIMURIUM, Strain/Indicator: TA98, Metabolic Activation: RAT, LIVER, S-9, PCB, Method: PREINCUBATION) “inactive; negative”. Moreover, the mutagenic call runs as follows: (Test System: AMES SALMONELLA TYPHIMURIUM, Strain/Indicator: TA100, Metabolic Activation: HAMSTER, LIVER, S-9, AROCLOR 1254, Method: STANDARD PLATE) “inactive; negative”; under setting [2], “inactive; negative”; under setting [3], “inactive; negative”; (Test System: AMES SALMONELLA TYPHIMURIUM, Strain/Indicator: TA100, Metabolic Activation: RAT, LIVER, S-9, AROCLOR 1254, Method: PREINCUBATION) “inactive; negative”; under setting [4], “inactive; negative”; (Test System: AMES SALMONELLA TYPHIMURIUM, Strain/Indicator: TA100, Metabolic Activation: RAT, LIVER, S-9, PCB, Method: PREINCUBATION) “inactive; negative”. Moreover, the mutagenic call reads like this: (Test System: AMES SALMONELLA TYPHIMURIUM, Strain/Indicator: TA102, Metabolic Activation: NONE, Method: PREINCUBATION) “inactive; negative”; (Test System: AMES SALMONELLA TYPHIMURIUM, Strain/Indicator: TA102, Metabolic Activation: RAT, LIVER, S-9, AROCLOR 1254, Method: PREINCUBATION) “inactive; negative”; (Test System: AMES SALMONELLA TYPHIMURIUM, Strain/Indicator: TA1535, Metabolic Activation: HAMSTER, LIVER, S-9, AROCLOR 1254, Method: STANDARD PLATE) “inactive; negative”; under setting [5], “inactive; negative”; (Test System: AMES SALMONELLA TYPHIMURIUM, Strain/Indicator: TA1535, Metabolic Activation: RAT, LIVER, S-9, AROCLOR 1254, Method: STANDARD PLATE) “inactive; negative”; (Test System: AMES SALMONELLA TYPHIMURIUM, Strain/Indicator: TA1537, Metabolic Activation: HAMSTER, LIVER, S-9, AROCLOR 1254, Method: STANDARD PLATE) “inactive; negative”. Also, the mutagenic call by setting is: under setting [6], “inactive; negative”; (Test System: AMES SALMONELLA TYPHIMURIUM, Strain/Indicator: TA1537, Metabolic Activation: RAT, LIVER, S-9, AROCLOR 1254, Method: STANDARD PLATE) “inactive; negative”; (Test System: AMES SALMONELLA TYPHIMURIUM, Strain/Indicator: TA1538, Metabolic Activation: HAMSTER, LIVER, S-9, AROCLOR 1254, Method: STANDARD PLATE) “inactive; negative”; (Test System: AMES SALMONELLA TYPHIMURIUM, Strain/Indicator: TA1538, Metabolic Activation: NONE, Method: STANDARD PLATE) “inactive; negative”; (Test System: AMES SALMONELLA TYPHIMURIUM, Strain/Indicator: TA1538, Metabolic Activation: RAT, LIVER, S-9, AROCLOR 1254, Method: STANDARD PLATE) “inactive; negative”; (Test System: MOUSE LYMPHOMA, Strain/Indicator: L5178Y (TK+/TK-), Metabolic Activation: NONE, Method: SUSPENSION/PLATE) “inactive; negative. reevaluation of results: negative”. The mutagenic call (Test System: MOUSE LYMPHOMA, Strain/Indicator: L5178Y (TK+/TK-), Metabolic Activation: RAT, LIVER, S-9, AROCLOR 1254, Method: SUSPENSION/PLATE) is “inactive; negative. reevaluation of results: negative”.

With `CC1=C2C(=CO[C@H](C)[C@H]2C)C(=O)C(C(=O)O)=C1O`, the mutagenic call reads like this: (End Point: In vivo chromosomal aberrations, Test System: Bone marrow cells, Species: Mouse, Strain/Sex: Balb/C / Male, Route: Intraperitoneal) “active; positive (structural changes)”; (Test System: AMES SALMONELLA TYPHIMURIUM, Strain/Indicator: TA97, Metabolic Activation: NONE, Method: STANDARD PLATE) “inactive; negative”; (Test System: AMES SALMONELLA TYPHIMURIUM, Strain/Indicator: TA97, Metabolic Activation: RAT LIVER S-9, AROCLOR 1254, Method: STANDARD PLATE) “inactive; negative”; under setting [1], “inactive; negative”; (Test System: AMES SALMONELLA TYPHIMURIUM, Strain/Indicator: TA98, Metabolic Activation: RAT LIVER S-9, AROCLOR 1254, Method: STANDARD PLATE) “inactive; negative”; under setting [2], “inactive; negative”. Moreover, the mutagenic call is “inactive; negative” under setting [3]; “inactive; negative” (Test System: AMES SALMONELLA TYPHIMURIUM, Strain/Indicator: TA100, Metabolic Activation: RAT LIVER S-9, AROCLOR 1254, Method: STANDARD PLATE); “inactive; negative” (Test System: AMES SALMONELLA TYPHIMURIUM, Strain/Indicator: TA100, Metabolic Activation: RAT, LIVER, S-9, PHENOBARBITAL, Method: PREINCUBATION); “inactive; negative” (Test System: AMES SALMONELLA TYPHIMURIUM, Strain/Indicator: TA102, Metabolic Activation: NONE, Method: STANDARD PLATE); “inactive; negative” (Test System: AMES SALMONELLA TYPHIMURIUM, Strain/Indicator: TA102, Metabolic Activation: RAT, LIVER, S-9, AROCLOR 1254, Method: STANDARD PLATE); “inactive; negative” under setting [5]. Further, the mutagenic call was “inactive; negative” (Test System: AMES SALMONELLA TYPHIMURIUM, Strain/Indicator: TA1535, Metabolic Activation: RAT LIVER S-9, AROCLOR 1254, Method: STANDARD PLATE); “inactive; negative” under setting [6]; “inactive; negative” (Test System: AMES SALMONELLA TYPHIMURIUM, Strain/Indicator: TA1537, Metabolic Activation: RAT LIVER S-9, AROCLOR 1254, Method: STANDARD PLATE).

Regarding `C=C(C)C1CC=C(C=O)CC1` (configuration not stated), the mutagenic call (End Point: IN VIVO MICRONUCLEUS, Test System: BONE MARROW POLYCHROMATIC ERYTHROCYTES, Species: MOUSE, Strain/Sex: DDY/MALE, Route: IP) was “inactive; negative”.

Turning to `Cc1ccc2c(ccc3[nH]c4ccc5ccccc5c4c32)c1`, under setting [4], the mutagenic call was “active; positive”.
